# Source: ChEMBL document CHEMBL3885881, “DrugMatrix”
# Species on record: Rattus norvegicus
# Assay: DrugMatrix - Regimen: Daily Repeat
# Type: toxicity, organism-based, Sprague-Dawley
# Set-up: regimen Daily Repeat, gender Male, age 6-8 weeks
# Settings: in vivo, ip, 0 mg/kg, route intraperitoneal, dose level Control, vehicle 100 % SALINE; for ABSOLUTE BASOPHIL / ABSOLUTE EOSINOPHIL / ABSOLUTE LYMPHOCYTE / ABSOLUTE MONOCYTE / ABSOLUTE SEGMENTED NEUTROPHIL / BASOPHIL / EOSINOPHIL / ERYTHROCYTE COUNT / HEMATOCRIT / HEMOGLOBIN / LEUKOCYTE COUNT / LYMPHOCYTE / MEAN CORPUSCULAR HEMOGLOBIN / MEAN CORPUSCULAR HEMOGLOBIN CONCENTRATION / MEAN CORPUSCULAR VOLUME / MONOCYTE / NEUTROPHIL / PLATELET COUNT: tissue Blood
# [1] = 120 h, tissue Plasma, time 5 day
# [2] = […], tissue Plasma, time 14 day
# [3] = […], tissue Plasma, time 28 day
sequence,measurement,setting,value
CARBOPLATIN,ABSOLUTE BASOPHIL,"120 h, time 5 day",32 cells/µL
same,ABSOLUTE EOSINOPHIL,"120 h, time 5 day",110 cells/µL
same,ABSOLUTE LYMPHOCYTE,"120 h, time 5 day",6630 cells/µL
same,ABSOLUTE MONOCYTE,"120 h, time 5 day",140 cells/µL
same,ABSOLUTE SEGMENTED NEUTROPHIL,"120 h, time 5 day",1170 cells/µL
same,BASOPHIL,"120 h, time 5 day",0.38%
same,EOSINOPHIL,"120 h, time 5 day",1.28%
same,ERYTHROCYTE COUNT,"120 h, time 5 day",7.45 x10E6/uL
same,HEMATOCRIT,"120 h, time 5 day",45.74%
same,HEMOGLOBIN,"120 h, time 5 day",14.72 G/DL
same,LEUKOCYTE COUNT,"120 h, time 5 day",8.11 x10E3/uL
same,LYMPHOCYTE,"120 h, time 5 day",81.3%
same,MEAN CORPUSCULAR HEMOGLOBIN,"120 h, time 5 day",19.76 pg
same,MEAN CORPUSCULAR HEMOGLOBIN CONCENTRATION,"120 h, time 5 day",32.16 G/DL
same,MEAN CORPUSCULAR VOLUME,"120 h, time 5 day",61.38 fL
same,MONOCYTE,"120 h, time 5 day",1.76%
same,NEUTROPHIL,"120 h, time 5 day",14.9%
same,PLATELET COUNT,"120 h, time 5 day",1322.4 x10E3/uL
same,ALANINE AMINOTRANSFERASE,[1],25.8 u/L
same,ALBUMIN,[1],3.64 G/DL
same,ASPARTATE AMINOTRANSFERASE,[1],81.4 u/L
same,BLOOD UREA NITROGEN,[1],14.4 mg/dL
same,CHOLESTEROL,[1],69.2 mg/dL
same,CREATINE PHOSPHOKINASE,[1],303.2 u/L
same,CREATININE,[1],0.56 mg/dL
same,GLUCOSE,[1],125.4 mg/dL
same,LACTATE DEHYDROGENASE,[1],105.4 u/L
same,LIPASE,[1],22.4 u/L
same,POTASSIUM,[1],5.52 MEQ/L
same,SODIUM,[1],147 MEQ/L
same,TOTAL BILIRUBIN,[1],0.2 mg/dL
same,TOTAL PROTEIN,[1],6.1 G/DL
same,URIC ACID,[1],1.06 mg/dL
same,ABSOLUTE BASOPHIL,"[…], time 14 day",130 cells/µL
same,ABSOLUTE EOSINOPHIL,"[…], time 14 day",140 cells/µL
same,ABSOLUTE LYMPHOCYTE,"[…], time 14 day",13500 cells/µL
same,ABSOLUTE MONOCYTE,"[…], time 14 day",400 cells/µL
same,ABSOLUTE SEGMENTED NEUTROPHIL,"[…], time 14 day",2330 cells/µL
same,BASOPHIL,"[…], time 14 day",0.72%
same,EOSINOPHIL,"[…], time 14 day",0.86%
same,ERYTHROCYTE COUNT,"[…], time 14 day",7.74 x10E6/uL
same,HEMATOCRIT,"[…], time 14 day",45.98%
same,LEUKOCYTE COUNT,"[…], time 14 day",16.61 x10E3/uL
same,LYMPHOCYTE,"[…], time 14 day",81.34%
same,MEAN CORPUSCULAR HEMOGLOBIN,"[…], time 14 day",18 pg
same,MEAN CORPUSCULAR HEMOGLOBIN CONCENTRATION,"[…], time 14 day",30.22 G/DL
same,MEAN CORPUSCULAR VOLUME,"[…], time 14 day",59.4 fL
same,MONOCYTE,"[…], time 14 day",2.46%
same,NEUTROPHIL,"[…], time 14 day",14.14%
same,PLATELET COUNT,"[…], time 14 day",1445.5 x10E3/uL
same,ABSOLUTE BASOPHIL,"[…], time 28 day",91 cells/µL
same,ABSOLUTE EOSINOPHIL,"[…], time 28 day",110 cells/µL
same,ABSOLUTE LYMPHOCYTE,"[…], time 28 day",9910 cells/µL
same,ABSOLUTE MONOCYTE,"[…], time 28 day",210 cells/µL
same,ABSOLUTE SEGMENTED NEUTROPHIL,"[…], time 28 day",1560 cells/µL
same,BASOPHIL,"[…], time 28 day",0.77%
same,EOSINOPHIL,"[…], time 28 day",0.92%
same,ERYTHROCYTE COUNT,"[…], time 28 day",8.21 x10E6/uL
same,HEMATOCRIT,"[…], time 28 day",47.53%
same,HEMOGLOBIN,"[…], time 28 day",15.65 G/DL
same,LEUKOCYTE COUNT,"[…], time 28 day",11.91 x10E3/uL
same,LYMPHOCYTE,"[…], time 28 day",83.34%
same,MEAN CORPUSCULAR HEMOGLOBIN,"[…], time 28 day",19.07 pg
same,MEAN CORPUSCULAR HEMOGLOBIN CONCENTRATION,"[…], time 28 day",32.93 G/DL
same,MEAN CORPUSCULAR VOLUME,"[…], time 28 day",57.9 fL
same,MONOCYTE,"[…], time 28 day",1.68%
same,NEUTROPHIL,"[…], time 28 day",12.97%
same,PLATELET COUNT,"[…], time 28 day",1323.8 x10E3/uL
same,ALANINE AMINOTRANSFERASE,[2],31.6 u/L
same,ALBUMIN,[2],3.66 G/DL
same,ALKALINE PHOSPHATASE,[2],228.6 u/L
same,ASPARTATE AMINOTRANSFERASE,[2],79.6 u/L
same,BLOOD UREA NITROGEN,[2],11.2 mg/dL
same,CHLORIDE,[2],107 MEQ/L
same,CHOLESTEROL,[2],57 mg/dL
same,CREATININE,[2],0.5 mg/dL
same,GLUCOSE,[2],124.4 mg/dL
same,LACTATE DEHYDROGENASE,[2],106.4 u/L
same,LIPASE,[2],24.4 u/L
same,PHOSPHORUS,[2],10.52 mg/dL
same,POTASSIUM,[2],6.34 MEQ/L
same,SODIUM,[2],149.2 MEQ/L
same,TOTAL BILIRUBIN,[2],0.2 mg/dL
same,TOTAL PROTEIN,[2],6.48 G/DL
same,URIC ACID,[2],0.94 mg/dL
same,ALANINE AMINOTRANSFERASE,[3],30 u/L
same,ALBUMIN,[3],3.71 G/DL
same,ALKALINE PHOSPHATASE,[3],186.8 u/L
same,ASPARTATE AMINOTRANSFERASE,[3],78.2 u/L
same,BLOOD UREA NITROGEN,[3],14.2 mg/dL
same,CHOLESTEROL,[3],44.9 mg/dL
same,CREATINE PHOSPHOKINASE,[3],334.3 u/L
same,CREATININE,[3],0.6 mg/dL
same,GLUCOSE,[3],147.2 mg/dL
same,LACTATE DEHYDROGENASE,[3],123.1 u/L
same,LIPASE,[3],9.6 u/L
same,PHOSPHORUS,[3],10.01 mg/dL
same,POTASSIUM,[3],6.57 MEQ/L
same,SODIUM,[3],149.5 MEQ/L
same,TOTAL BILIRUBIN,[3],0.21 mg/dL
same,TOTAL PROTEIN,[3],6.66 G/DL
